Key:
human TLR7 [1] = molecular target: T1, human TLR7 (Homo sapiens, UniProt Q9NYK1); experiment: TLR7 activation in Namalwa cells (IFN-α1 promoter luciferase reporter, N-TLR7/N-vector); format: cell-based; settings: final IRM concentration 10 μM, 18 hours, normalized to the DMSO without compound control
T1 construct: expressed in transfected cells; host or cells: Namalwa cells (ATCC CRL-1432), pCI-neo vector, electroporated, G418 selected, with pIFN-α1-luc reporter
T1 sequence (Q9NYK1 27-1049): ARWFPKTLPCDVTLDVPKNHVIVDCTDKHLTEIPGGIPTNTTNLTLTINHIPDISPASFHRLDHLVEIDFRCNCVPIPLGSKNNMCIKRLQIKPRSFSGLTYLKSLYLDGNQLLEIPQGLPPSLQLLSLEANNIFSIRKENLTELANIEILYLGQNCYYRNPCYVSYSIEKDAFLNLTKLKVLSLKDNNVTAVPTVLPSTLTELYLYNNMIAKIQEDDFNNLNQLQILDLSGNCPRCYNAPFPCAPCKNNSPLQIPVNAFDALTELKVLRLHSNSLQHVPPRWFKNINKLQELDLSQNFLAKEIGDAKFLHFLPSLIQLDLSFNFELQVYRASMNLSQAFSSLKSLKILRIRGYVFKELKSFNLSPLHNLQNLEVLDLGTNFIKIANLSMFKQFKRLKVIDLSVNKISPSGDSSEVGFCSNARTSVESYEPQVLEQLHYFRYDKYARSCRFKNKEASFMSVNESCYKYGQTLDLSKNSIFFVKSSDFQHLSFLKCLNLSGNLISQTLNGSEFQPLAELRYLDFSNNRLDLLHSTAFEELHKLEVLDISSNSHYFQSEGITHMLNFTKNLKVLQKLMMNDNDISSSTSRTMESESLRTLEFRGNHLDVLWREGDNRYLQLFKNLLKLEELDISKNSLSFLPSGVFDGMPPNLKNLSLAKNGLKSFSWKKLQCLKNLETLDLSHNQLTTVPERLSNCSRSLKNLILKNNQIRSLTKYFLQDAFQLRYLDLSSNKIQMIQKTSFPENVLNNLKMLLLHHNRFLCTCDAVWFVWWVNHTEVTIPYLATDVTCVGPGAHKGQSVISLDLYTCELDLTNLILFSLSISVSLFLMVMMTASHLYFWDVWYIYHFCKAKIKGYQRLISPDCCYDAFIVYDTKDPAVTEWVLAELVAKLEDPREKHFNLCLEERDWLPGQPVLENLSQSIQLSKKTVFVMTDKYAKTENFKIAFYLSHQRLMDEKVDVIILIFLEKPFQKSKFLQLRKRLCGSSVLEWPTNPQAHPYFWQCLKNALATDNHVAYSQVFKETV
Experimental: (§1) In one embodiment, exemplified in Example 1, selective modulation of TLR7-mediated NF-κB activation and TLR7-mediated IFN-α1 induction were assayed. NF-κB activation was measured in genetically modified HEK293 cells (H-TLR7) by detecting TLR7-mediated NF-κB-dependent transcription of a luciferase reporter. IFN-α1 induction was measured in genetically modified Namalwa cells (N-TLR7) by detecting TLR-mediated IFN-α1-induced transcription of a luciferase reporter. Results are shown in Table 2 and are expressed as the fold increase in TLR7-mediated luciferase signal—(H-TLR7/H-vector) and (N-TLR7/N-vector), respectively—normalized to a control in which the cells were treated with vehicle that contained no IRM compound. In this assay, a compound was considered to induce the TLR7-mediated cellular activity if the compound generated at least a two-fold increase in the luciferase signal compared to the vector control.
Unless otherwise indicated, all incubations were performed at 37° C. with 5% CO2 at 98% humidity.
Culture medium was prepared from complete RPMI 1640 medium (BioSource International, Inc., Camarillo, Calif.). Fetal bovine serum (Atlas Biologicals, Inc., Ft. Collins, Colo.) was added to a final concentration of 7.5% (vol/vol); L-glutamine (BioSource International, Inc.) was added to 5 mM; and sodium pyruvate (BioSource International, Inc.) was added to 1 mM.
Namalwa cells were grown by incubation in culture medium overnight. Cells were harvested by centrifugation in a tabletop centrifuge (1200 RPM for 5 minutes), and then resuspended in phosphate buffered sucrose to a concentration of 1.3×10^7 cells/mL.
For each transfection, a 750 μL aliquot of the cell suspension was placed in an electroporation cuvette with 4 mm gaps. Each aliquot received transfection DNA: 10 μg of pGL3-Enhancing vector (Promega Corp., Madison, Wis.) containing the human IFN-α1 promoter cloned into the BglII site (pIFN-α1-luc), and 10 μg of pCI-neo mammalian expression vector (Promega Corp.) either (1) unmodified (N-vector) or (2) containing an expressible human TLR7 gene (N-TLR7). The cell and vector mixtures were incubated at room temperature for 5 minutes. The cells were electroporated using a BioRad Gene Pulser (BioRad Laboratories, Hercules, Calif.) set to at 500 μF capacitance and […], then incubated at room temperature for 5 minutes.
The electroporated cells were suspended in 10 mL of culture medium and incubated overnight. Dead cells and debris were removed after 24 hours using a MACS Dead Cell Removal kit (Miltenyi Biotec, Auburn, Calif.). Cells were resuspended in 10 mL of culture medium and incubated for an additional 24 hours.
Transfected cells were selected by adding G418 (Promega Corp., Madison, Wisc.) to a final concentration of 1 mg/mL and incubating the cells for seven days.
The selected transfected cells were counted and resuspended to a concentration of 1×10^6 cell per mL in culture medium. 100 μl aliquots of cells were placed in the wells of a white-walled, white-bottomed 96-well plate (Corning, Inc. Corning, N.Y.). 1.0 μL of an IRM compound from Table 1 (prepared at 1 mM in 100% DMSO) was added to some cell aliquots so that the final concentration of IRM compound was 10 μM. As a positive control, some cell aliquots were incubated with Sendai virus instead of IRM compound. As a negative control, some cell aliquots were incubated with DMSO without IRM compound. In all cases, the cells were incubated for 18 hours.
The plates were equilibrated to room temperature before 1 volume of reconstituted LucLight Plus (Packard Instruments, Meriden, Conn.) was added to each aliquot of cells. Each well of the plate was read on an LJL Analyst (LJL Biosystems, Inc., Sunnyvale, Calif.) set with a 5 minute dark adapt.
(§2) The data are expressed as fold increase in TLR7-mediated luciferase signal—(H-TLR7/H-vector) and (N-TLR7/N-vector), respectively—normalized to the DMSO without compound control.

human TLR7 [2] = molecular target: T1, human TLR7; experiment: TLR7 activation in HEK293 cells (NF-kB-luc luciferase reporter, H-TLR7/H-vector); format: cell-based; settings: final IRM concentration 10 μM, 16 hours, normalized to the DMSO without compound control
Experimental: as §1
HEK293 medium was prepared from 90% Minimum Essential Medium (MEM) with 2 mM L-glutamine and Earle's Balanced Salt Solution (Invitrogen Corp., Rockville, Md.) adjusted to contain 1.5 g/L sodium bicarbonate, 0.1 mM non-essential amino acids, and 1.0 mM sodium pyruvate; 10% heat-inactivated fetal calf serum. HEK293 cells were cultured by incubating cells in HEK293 medium overnight at 37° C, 8% CO2.
Twenty-four hours before transfection, HEK293 cells were adhered to a 10 cm dish (Corning 430167, Corning Inc., Corning, N.Y.) at 37° C., 8% CO2. The cells were co-transfected with (1) pIRES (BD Biosciences Clontech, Palo Alto, Calif.) either (a) unmodified (H-vector), or (b) containing an expressible human TLR7 gene (H-TLR7), and (2) NF-kB-luc reporter (Stratagene, La Jolla, Calif.) in a 10:1 ratio with Fugene 6 transfection reagent (Roche Diagnostics Corp., Indianapolis, Ind.) following the manufacturer's instructions. The plates were incubated for 24 hours following transfection and then selected in G-418 (400 μg/mL) for two weeks. The G-418-resistant cells containing either the expressible TLR7 gene or the empty vector were expanded in HEK293 medium supplemented with G-418 for stimulation experiments.
The transfected cells were plated in white opaque 96 well plates (Costar 3917, Corning Inc., Corning, N.Y.) at a concentration of 5×10^4 cells per well in 100 μL of HEK293 media and incubated at 37° C., 8% CO2 for 4 hours. The cells were stimulated with 1 μL of IRM compounds at 1 mM in DMSO (final IRM concentration of 10 μM) or 1 μL DMSO as a control. The plates were then incubated an additional 16 hours at 37° C., 5% CO2. The luciferase signal was read using the LucLite kit (Packard Instrument Co., Meriden, Conn.). Luminescence was measured on an LMAX luminometer (Molecular Devices Corp., Sunnyvale, Calif.).
as §2

| SMILES | N-TLR7: fold increase in TLR7-mediated luciferase signal (N-TLR7/N-vector), IFN-α1 promoter reporter (human TLR7 [1]) [fold] | H-TLR7: fold increase in TLR7-mediated luciferase signal (H-TLR7/H-vector), NF-κB-dependent reporter (human TLR7 [2]) [fold] |
| --- | --- | --- |
| CCCCc1nc2c(N)nc3cccnc3c2n1CCNC(=O)C(N)CC(C)C (stereo not drawn) [IRM11, N^1-[2-(4-amino-2-butyl-1H-imidazo[4,5-c][1,5]naphthyridin-1-yl)ethyl]-2-amino-4-methylpentanamide] | 2.8 | 0.5 |
| CCCCc1nc2c(N)nc3ccccc3c2n1CCCCCS(C)(=O)=O [IRM23, 2-butyl-1-[5-(methylsulfonyl)pentyl]-1H-imidazo[4,5-c]quinolin-4-amine] | 2.8 | 9.4 |
| CCC(C)NC(=S)NCCn1c(CCOC)nc2c(N)nc3ccccc3c21 (stereo not drawn) [IRM24, N-{2-[4-amino-2-(2-methoxyethyl)-1H-imidazo[4,5-c]quinolin-1-yl]ethyl}-N′-sec-butylthiourea] | 3.2 | 7.9 |
| CCOCc1nc2c(N)nc3ccccc3c2n1CCC(C)C [IRM9, 2-ethoxymethyl-1-(3-methylbutyl)-1H-imidazo[4,5-c]quinolin-4-amine] | 2.6 | 0.7 |
| CCCCSCCCCn1c(CC)nc2c(N)nc3ccccc3c21 [IRM6, 1-[4-(butylthio)butyl]-2-ethyl-1H-imidazo[4,5-c]quinolin-4-amine] | 1.4 | 7.1 |
| CCCCc1nc2c(N)nc3ncccc3c2n1CC(C)C [IRM10, 2-butyl-1-(2-methylpropyl)-1H-imidazo[4,5-c][1,8]naphthyridin-4-amine] | 4.4 | 1.1 |
| CCCc1nc2c(N)nc3ccccc3c2n1CCCCS(C)(=O)=O [IRM21, 1-[4-(methylsulfonyl)butyl]-2-propyl-1H-imidazo[4,5-c]quinolin-4-amine] | 3.8 | 0.7 |
| CCOCc1nc2c(N)nc3ccccc3c2n1CCCCNC(=O)N1CCOCC1 [IRM18] | 3.3 | 0.5 |
| COCCc1nc2c(N)nc3ccccc3c2n1CC(C)(C)CNC(=O)Nc1ccccc1 [IRM4, N-{3-[4-amino-2-(2-methoxyethyl)-1H-imidazo[4,5-c]quinolin-1-yl]-2,2-dimethylpropyl}-N′-phenylurea] | 1.6 | 15.0 |
| COCCc1nc2c(N)nc3ccccc3c2n1CCCCCCCCNC(=O)Nc1ccccc1 [IRM2, N-{8-[4-amino-2-(2-methoxyethyl)-1H-imidazo[4,5-c]quinolin-1-yl]octyl}-N′-phenylurea] | 1.5 | 4.1 |
| CCc1nc2c(N)nc3ccccc3c2n1CCOCCNC(=O)Nc1ccccc1 [IRM20, N-{2-[2-(4-amino-2-ethyl-1H-imidazo[4,5-c]quinolin-1-yl)ethoxy]ethyl}-N′-phenylurea] | 3.7 | 0.8 |
| Nc1nc2ccccc2c2c1ncn2CCOCC#Cc1csc(C=O)c1 [IRM1, 4-{3-[2-(4-amino-1H-imidazo[4,5-c]quinolin-1-yl)ethoxy]-1-propynyl}-2-thiophenecarboxaldehyde] | 1.6 | 13.2 |
